# Experimental data from patent US20130216614A1, “IMMUNOGENIC COMPOSITIONS AND METHODS FOR TREATING NUEROLOGIC DISORDERS” (Glaxosmithkline Biologicals S.A., priority 2010, published 2013).
# Assays:
# [1] = tested on: monomeric Aβ; assay: Immunoblot of monomeric Aβ in brain protein fractions; format: in vivo, mice; conditions: anti Aβ1-16 antibody, vs PBS
# Experimental: Proteins from hemi-forebrains were extracted using a modified method of the procedure published by Lesné et al (Lesne et al., 2006). All manipulations were done on ice to minimize protein degradation. One hemi-forebrain was placed in a 1 ml syringe with a 20 G needle. 500 l of buffer A (50 mM Tris-HCl pH 7.6, 0.01% NP-40, 150 mM NaCl, 2 mM EDTA, 0.1% SDS, 1 mM phenylmethylsulfonyl fluoride (PMSF), protease inhibitor cocktail) were added and 10 up and down were made to homogenize the tissue, followed by a 5 minutes centrifugation at 3 000 RPM at 4° C. The supernatant (extracellular proteins enriched fraction) was then collected and frozen at −80° C. […] Protein concentration of each fraction was determined using the Quantipro BCA assay kit (Sigma) according to the manufacturer protocol.
# For total Aβ detection, 10-30 μg of extracellular, cytoplasmic and membrane protein fractions were separated on a precast 10-20% SDS polyacrylamide Tris-Tricine gel (Bio-Rad). Separated proteins were then transferred onto polyvinylidene fluoride (PVDF) membranes (PerkinElmer Life and Analytical Sciences) and detected by Western blotting. […]
# Quantification was done by determining integrative density of the bands using a gel imaging system (scanner Agfa Arcus II; NIHImage J software version 1.32j) and background values were removed. […] Results are expressed as mean±SEM. […]
# [2] = tested on: APPSwe/PS1 mice; assay: Aβ plaque loading in brain, stereological analysis; format: in vivo; conditions: 50 μg/mouse i.p. weekly for 12 weeks
# Experimental: Five groups of APPSwe/PS1 mice have received one a week for a period of 12 weeks the following treatment: • Gr1: APPSwe/PS1+NaCl 0.9% n(=20), i.p. injections • Gr4: APPSwe/PS1+CRX527 (20 μg/mouse, 130 μl, n=10), i.p. injections • Gr5: APPSwe/PS1+CRX601 (20 μg/mouse, 130 μl, n=10), i.p. injections • Gr6: APPSwe/PS1+3D MPL (50 μg/mouse, 130 μl, n=10), i.p. injections • Gr8 APPSwe/PS1+AS15 • Gr9: APPSwe/PS1+AS01B ( 1/10th of human dose μg/kg, 50 μl, n=10), i.m. injections
# Mice were anesthetized under isofluorane and blood was drawn via cardiac puncture before head decapitation. Brains were rapidly removed from the skulls and placed in cold phosphate buffered saline (PBS) solution. Then hemibrains were separated and olfactory bulbs and cerebellum were removed. One hemibrain was rapidly frozen in liquid nitrogen and stored at −80° C. for protein analysis. The other one was postfixed for 2-4 days in 4% paraformaldehyde (PFA), pH 9.5 at 4° C., and then placed in a PFA solution containing 10% sucrose overnight at 4° C. […]
# An observer who was blind to the treatment status of the material did all quantitative histological analyses. […] Briefly, the contours of the prefrontal cortex, the hippocampus and the cortex areas were traced as virtual overlay on the […] images and areas were calculated. The area occupied by all Aβ-labeled plaques was determined. […]
substance,measurement,setting,value
3-O-desacyl-4′-monophosphoryl lipid A [3D MPL],monomeric Aβ in extra-cellular enriched fractions from brains,[1],reduction
same,Amyloid beta plaque number,[2],statistically significant reduction
same,Aβ total plaque loading by immunofluorescence vs PBS control group,[2],significant difference
